Where two headings read alike, the source gives them in different places.
Columns and labels:
muscle protein synthesis [1] = conditions: cited from earlier work
muscle protein synthesis [2] = conditions: pigs with a sepsis-like syndrome, arginine supplementation; cited from earlier work
protein synthesis = experiment: Amino acid supplementation and protein synthesis in normal, inflamed and inflamed with DHA conditions (FIG. 4); conditions: conditions of inflammation (FIG. 4)
Source text: Given the observed changes in protein intake and observed changes in protein synthesis in aging, it is believed that a hyperinflammed state compromises protein synthesis and further accentuates chronic disease related to arginine deficiency and malnutrition.
Omega-3 fatty acids, including but not limited to alpha-linolenic acid (ALA), eicosapentaenoic (EPA) and docosahexaenoic acids (DHA); omega-6 linoleic acid; and borage oil (also an omega-6 fatty acid) are currently used in different diets with the intention to improve immune dysfunction. […] Used with omega-3 fatty acids, arginine is believed to be more available to provide a normal response under conditions of inflammation. Dietary intake of omega-3 fatty acids by the elderly may favorably shift the balance in the production of PGE2, via […] and downregulation of arginase (as shown in FIG. 6) and, consequently, help avoid arginine deficiency and thereby improve or maintain optimal immune system function. […] The products of omega-6 fatty acid metabolism are believed to contribute to arginine deficiency and inflammation in this way. There have been numerous studies showing the benefits of dietary omega-3 fatty acids over omega-6 fatty acids in various physiologic conditions including coronary artery disease, chronic inflammatory conditions such as cancer, and other inflammatory mediated states.

SMILES: N=C(N)NCCC[C@H](N)C(=O)O [arginine]
- Muscle protein synthesis (muscle protein synthesis [1]; anesthetized rabbits, infusion): stimulated
- Muscle protein breakdown (muscle protein synthesis [1]; post-absorptive rabbits, arginine added to the amino acid solution): unchanged
- Muscle protein synthesis (muscle protein synthesis [2]): improved

SMILES: CC/C=C\C/C=C\C/C=C\C/C=C\C/C=C\C/C=C\CCC(=O)O [DHA, docosahexaenoic acids]
- Protein synthesis (protein synthesis): improves the efficacy of arginine delivery in promoting protein synthesis

From patent US20100179089A1, “Compositions and Methods to Manage the Inflammatory Basis of Chronic Disease Conditions and Maintain an Optimal Immune Response in Elderly” (priority 2009, published 2010)
